Measured values reported in article PMC6624297 (Cell Death & Disease, 2019).

What was measured:
human TS (hTS) = target: T1, human TS (hTS) (Homo sapiens, UniProt P04818); experiment: Thymidylate synthase (TS) spectrophotometric assay; type: biochemical; details: averages from triplicate assays
T1 construct: purchased ProSpec-Tany
Experimental: Recombinant human thymidylate synthase purchased from ProSpec-Tany Company. TS was assayed spectrophotometrically at 30 °C and pH 7.4 in a mixture containing 0.1 M 2-mercaptoethanol, 0.0003 M (6R,S)-tetrahydrofolate, 0.012 M formaldehyde, 0.02 M MgCl2, 0.001 M dUMP, 0.04 M Tris–HCl, 30 nM hTS, and 0.00075 M NaEDTA. […] The reaction was initiated by the addition of an amount of enzyme yielding a change in absorbance at 340 nm of 0.016/min in the absence of inhibitor.

A549 cells [1] = experiment: MTT assay A549; type: cell-based, human
Experimental: (§1) Details are given in Supplementary Materials and Methods. Using probability unit and weighted regression method to calculate the IC50 value of compounds.
(§2) Total cells in the logarithmic growth phase were collected, digested using 0.25% pancreatic enzymes, and then diluted into single-cell suspensions using phosphate-buffered solution (PBS). These cells were seeded into 96-well plates at 4× 10^3-5× 10^3 cells per well (100 µL per well) and then A549, H460, OVCAR-3, SGC7901, MDA-MB-231, HCT116 and HepG2 were cultured at 37°Cin an incubator containing 5% CO2. After cell complete attachment, 100 µL of different concentrations of compounds (0.625 μM, 1.25 μM, 2.5μM, 5 μM, 10 μM) were added to the cells after the nutrient solution in each well was discarded, while no compound except 0.1% DMSO was added to cells in the control group; at the same time, each concentration was set up to 5 wells. In addition, 5 wells in each 96-well plate only received 100 µL of nutrient solution as a blank control. The plates were taken out after the cells were incubated with compounds for 24 h, and 20 µL of MTT solution (5 mg/mL) (Wuhan Boster Biotechnology Limited Company, Wuhan, China; item No. AR1156) was added into all the wells. After another time of incubation for 4 h at 37 °C, the nutrient solution in each well was discarded slowly, and 150 µL of DMSO was added to each well. The plates were shaken on a shaking table for 20 min. When the crystals were fully dissolved, the blank wells were used to zero the plate reader. The optical density (OD) of each well was detected at 490 nm. The IC50 value was determined as the concentration of the inhibitor that caused 50% inhibition. Using probability unit and weighted regression method to calculate the IC50 value of compounds.

H460 cells = experiment: MTT assay H460; type: cell-based, human
Experimental: as §1
as §2, with “After another time of incubation for 4 h at 37 °C, the nutrient solution in each well was discarded slowly, and 150 µL of DMSO was added to each well. The plates were shaken on a shaking table for 20 min.” left out, “The IC50 value was determined as the concentration of the inhibitor that caused 50% inhibition. Using probability unit and weighted regression method to calculate the IC50 value of compounds.” left out

SK-MES-1 cells = experiment: MTT assay SK-MES-1; type: cell-based
A549 cells [2] = experiment: Cell cycle PI staining FACS, A549; type: cell-based, human; details: A549, 0.5, 1.0, 1.5 μM, 24 h
Source text: TS is a crucial enzyme in the DNA synthesis stage. When it is inhibited, first to show cell cycle arrest at G1/S phase. […] Flow cytometry show (Fig. 3), as the concentration of the compound increases, the cells in the G0/G1 phase increase, the cells in the S phase and the G2/M phase decrease. Eventually, the proliferation of cancer cells was inhibited by the G1/S phase arrest of the compound L14e.

[3] = tested on: P53, caspase-3, bcl-2/bax, cleaved caspase-3; experiment: Western blot apoptotic proteins, A549; type: cell-based, human; details: A549, 0.5, 1.0, 1.5 μM, 24 h
Experimental: (§3) A549 cells, H460 cells and HUVECs were treated with different concentrations of compound L14e for 24 h. Primary antibodies (100 μL/cm^2): P53(10442-1-AP, Proteintech Group),caspase-3 (19677-1-AP, Proteintech Group), bax (50599-2-lg, Proteintech Group), bcl-2 (12789-1-AP, Proteintech Group), cleaved caspase-3 (25546-1-AP, Proteintech Group), β-actin (60008-1-lg, Proteintech Group), EGFR (ab21074, Abcam), AKT (#2920, Cell Signaling Technology), ERK1/2 (#4370, Cell Signaling Technology), VEGFR-2 (#9698, Cell Signaling Technology), p-EGFR (ab40815, Abcam), p-AKT (#4060, Cell Signaling Technology), p-ERK1/2 (#4695, Cell Signaling Technology), p-VEGFR-2 (#3770, Cell Signaling Technology), and GAPDH (ab181603, Abcam). The cellular levels of proteins were determined by standard Western blotting. Details were given in Supplementary Materials and Methods.
(§4) A549 cells, H460 cells and HUVECs were treated with different concentrations of compound L14e for 24 h, and collected to establish their respective treatment groups. […]
(§5) Extracted proteins were separated from each other using polyacrylamide electrophoresis on a 10 % gel (Beyotime Biotechnology Company, Shanghai, China) and transferred to a polyvinylidene fluoride (PVDF) membrane. […] Gray values of protein bands were quantitatively analyzed, with the gray value of β-actin(GAPDH) band as the reference.

[4] = tested on: P53, caspase-3, bcl-2/bax, cleaved caspase-3; experiment: Western blot apoptotic proteins, H460; type: cell-based, human; details: H460, 0.5, 1.0, 1.5 μM, 24 h
Experimental: as §3, §4, §5

T1 sequence (P04818 whole entry): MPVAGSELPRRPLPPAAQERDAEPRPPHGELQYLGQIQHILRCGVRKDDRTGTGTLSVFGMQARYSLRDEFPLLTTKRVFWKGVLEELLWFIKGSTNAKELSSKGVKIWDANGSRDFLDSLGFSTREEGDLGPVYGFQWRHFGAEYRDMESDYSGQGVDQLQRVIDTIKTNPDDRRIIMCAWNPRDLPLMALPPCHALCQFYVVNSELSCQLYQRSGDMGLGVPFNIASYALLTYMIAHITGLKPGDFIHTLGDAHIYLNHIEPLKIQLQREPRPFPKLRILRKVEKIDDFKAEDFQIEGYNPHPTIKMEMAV

For `O=C(Nc1cccc(Cl)c1)Nc1ccccc1NS(=O)(=O)c1c[nH]c(=O)[nH]c1=O` [Compound L14e, N'-(3-chlorophenyl)-2-(2,4-dihydroxypyrimidine-5-sulfonamido)phenyl urea], the IC50 (human TS (hTS)) was 1060 nM, the “anti-proliferative potency relative to PTX, A549” value (A549 cells [1]) was “nearly five times higher” and the IC50 (A549 cells [1]; Homo sapiens, A549, 24h of treatment, mean ± SD) was 670 ± 220 nM. The “anti-proliferative potency relative to PTX, H460” value (H460 cells) was “nearly five times higher”, the “inhibition of proliferation of H460 cells compared with PTX and compound 10l” value (H460 cells; Fig. 2B(b)) was “significantly more inhibitory” and the “inhibition of SK-MES-1 cells” value (SK-MES-1 cells) was “did not inhibit”. The “effect on cell cycle” value (A549 cells [2]) was “arrest the cell cycle in the G1/S phase”, the “expression of P53, bax, bcl-2, cleaved caspase-3” value [3] was “over expression of P53, up-regulation of bax and down-regulation of bcl-2” and the “expression of P53, bax, bcl-2, cleaved caspase-3” value [4] was “over expression of P53, up-regulation of bax and down-regulation of bcl-2”.
